The subject of one assay is IL-1β. The experiment in a line: IL-1β in supernatant of THP-1 macrophages co-incubated with peptoid and LPS (ELISA). Format: cell-based, human. The note with it: peptoid 50 μM with 2 ng/mL LPS, 3 days; vs LPS alone. Here is the method: (§1) THP-1 monocytes were differentiated into macrophages through exposure to phorbol 12-myristate 13-acetate (PMA) for three days prior to experimentation 10. […] Upon differentiation, these cells were then incubated (3 days) with media containing JPT1a (50, 10, or 2 μM) alone or JPT1a (50, 10, or 2 μM) in the presence of low-dose (2 ng/mL) lipopolysaccharide (LPS) as a chronic pro-inflammatory stimulus 11. Treatment with 2 ng/mL LPS alone served as a positive control, while treatment with an equivalent volume of buffer diluted into media served as the vehicle. Cellular supernatant was harvested on day 3 12; these samples were immediately centrifuged at 1200 rpm for 10 min at 25° C. to remove any cells or debris. […] All multi-channel images were converted to TIFF file format via ImageJ64 software for quantitative image analysis using a custom subroutine written in Matlab™ software to obtain the average RAGE expression per volume of cells, and the data generated was assessed for statistical significance using GraphPad Prism 7.0 software 15.
(§2) As shown in FIGS. 2B-2D, THP-1 macrophages were treated with JPT1a alone (white) or in the presence of a chronic low-dose (2 ng/mL) of LPS (grey), for 3 days prior to supernatant harvest and storage. Examination of the supernatant via ELISA determined the concentrations of (FIG. 2B) IL-1β, (FIG. 2C) IL-6, and (FIG. 2D) IL-8. […]
(ELISA stands for enzyme-linked immunosorbent assay.)

Assay [1] addresses RAGE (Homo sapiens, UniProt Q15109). Description: RAGE binding to peptoid-coated 96-well plates, Scatchard plot. The note with it: plates coated with 500 nM peptoid; JPT1a n=3 average, JPT1 n=1. Here is the method: As shown in FIGS. 7A-7D, 96-well plates coated with 500 nM JPT1a were treated with concentrations of RAGE (FIG. 7A) or E-cadherin (FIG. 7B) ranging from 1 to 500 nM. Values are reported as the average concentration of bound protein determined from all experiments. Error bars indicate SEM, n=2-5. […] In FIG. 7D, 96-well plates coated with 500 nM JPT1 were treated with concentrations of RAGE ranging from 1 to 350 nM.

The test system of the next assay is IL-6. Description: IL-6 in supernatant of THP-1 macrophages co-incubated with peptoid and LPS (ELISA). Format: cell-based, human. The note with it: peptoid 50 μM with 2 ng/mL LPS, 3 days; vs LPS alone. The procedure:
as §1, with “debris. The top 80% of this volume was subsequently removed and stored at −80° C. for later assessment of cytokines via ELISA. Cells were fixed and stained for RAGE, phalloidin (cytoplasmic marker), and DAPI (nuclear marker) 13.” for “debris.”
as §2
As shown in FIGS. 5B-5D, THP-1 macrophages were treated with JPT1 alone (white) or in the presence of a chronic low-dose (2 ng/mL) of LPS (grey), for 3 days prior to supernatant harvest and storage. Examination of the supernatant via ELISA determined the concentrations of (FIG. 5B) IL-1β, (FIG. 5C) IL-6, and (FIG. 5D) IL-8. […]

The test system of assay [2] is RAGE. Description: RAGE upregulation in THP-1 macrophages co-incubated with peptoid and low-dose LPS (confocal imaging). Format: cell-based, human. The note with it: 3 days. Here is the method: THP-1 monocytes were differentiated into macrophages through exposure to phorbol 12-myristate 13-acetate (PMA) for three days prior to experimentation 10. […] Upon differentiation, these cells were then incubated (3 days) with media containing JPT1a (50, 10, or 2 μM) alone or JPT1a (50, 10, or 2 μM) in the presence of low-dose (2 ng/mL) lipopolysaccharide (LPS) as a chronic pro-inflammatory stimulus 11. Treatment with 2 ng/mL LPS alone served as a positive control, while treatment with an equivalent volume of buffer diluted into media served as the vehicle. Cellular supernatant was harvested on day 3 12; these samples were immediately centrifuged at 1200 rpm for 10 min at 25° C. to remove any cells or debris. The top 80% of this volume was subsequently removed and stored at −80° C. for later assessment of cytokines via ELISA. Cells were fixed and stained for RAGE, phalloidin (cytoplasmic marker), and DAPI (nuclear marker) 13. Each channel was imaged with a Zeiss LSM 510 META Confocal Scanning Laser Microscope using a plan-neofluar 40×/1.3 oil DIC immersion objective; three of these multi-channel images were obtained from each slide in each experiment 14. All multi-channel images were converted to TIFF file format via ImageJ64 software for quantitative image analysis using a custom subroutine written in Matlab™ software to obtain the average RAGE expression per volume of cells, and the data generated was assessed for statistical significance using GraphPad Prism 7.0 software 15.
Images acquired via confocal microscopy were analyzed via custom MATLAB™ subroutine to determine the average quantity of RAGE present within a given volume of cells. Results within each experiment are normalized to the positive control (2 ng/mL LPS alone), indicated by the dashed line at 1. Significance relative to positive control is indicated as ** p<0.01. Error bars indicate SEM, n=4.
Images acquired via confocal microscopy were analyzed via custom MATLAB™ subroutine to determine the average quantity of RAGE present within a given volume of cells. Results within each experiment are normalized to the positive control (2 ng/mL LPS alone), indicated by the dashed line at 1.0. Error bars indicate SEM, n=2.

SMILES strings stand for the structures. Where a SMILES comes first, the peptide text is derived from it. [ ]: non-standard residue; d: D form. Nphe = O=C(O)CNCc1ccccc1; NPrGly = CCCNCC(=O)O; Nlys = NCCCCNCC(=O)O

Chain of RAGE (Homo sapiens, UniProt Q15109) (Q15109 23-404): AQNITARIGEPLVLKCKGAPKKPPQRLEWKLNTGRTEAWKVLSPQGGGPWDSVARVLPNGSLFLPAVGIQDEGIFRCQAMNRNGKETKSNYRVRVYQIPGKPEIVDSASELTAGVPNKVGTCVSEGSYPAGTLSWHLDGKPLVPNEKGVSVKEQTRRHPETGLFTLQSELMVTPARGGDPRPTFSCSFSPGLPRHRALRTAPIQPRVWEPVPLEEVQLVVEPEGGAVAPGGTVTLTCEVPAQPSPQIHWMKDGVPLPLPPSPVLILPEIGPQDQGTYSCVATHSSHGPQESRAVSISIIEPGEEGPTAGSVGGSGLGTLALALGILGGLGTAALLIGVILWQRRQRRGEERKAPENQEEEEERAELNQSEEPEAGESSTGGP

One may read the Kd as the equilibrium constant for the complex coming apart. As for `CCCN(CC(=O)N(CCC)CC(=O)N(CC(=O)N(CC(=O)N(CCC)CC(=O)N(CC(=O)N(CC(N)=O)Cc1ccccc1)Cc1ccccc1)Cc1ccccc1)Cc1ccccc1)C(=O)CNCCCCN` [JPT1] (H-[Nlys][NPrGly][NPrGly][Nphe][Nphe][NPrGly][Nphe][Nphe]-NH2), in the assay with IL-1β, the “LPS-induced production of IL-1β” value is “significantly attenuates”. Further, the affinity on RAGE [1], expressed as Kd, was 78.8 nM. Moreover, the “LPS-induced production of IL-6” value in the assay on IL-6 is listed as “significantly attenuates”. For the same compound, the “upregulation in RAGE expression in the presence of LPS” value in the assay on RAGE [2] (peptoid 50, 10 or 2 μM with 2 ng/mL LPS, normalized to LPS alone) is “reduced in a dose-dependent manner”. Further, in the assay with RAGE [2] (peptoid alone (no LPS), relative to the control), the “expression of RAGE, peptoid alone” value is “does not provoke response or upregulation”.

(Values after patent US11197908B2, “Peptoids and methods for attenuating inflammatory response” (THE BOARD OF TRUSTEES OF THE UNIVERSITY OF ARKANSAS, priority 2018, dated 2021).)
